Data set [1] deals with Human liver cancer HepG2 cells. Description: Anti-tumor activity: apoptosis of HepG2 cells by flow cytometry. It counts as cell-based. To be noted: 48 hours. The method, then:
Human liver cancer HepG2 cells were prepared and then cultured in an incubator containing 5% of CO2 at 37° C. using a DMEN culture medium containing 10% of fetal bovine serum, penicillin (100 μmol·L^−1) and streptomycin (1 mg·mL^−1). HepG2 cells in logarithmic phase were diluted with RPMI-1640 culture medium containing 10% of fetal bovine serum to a concentration of 1×10^4 per mL; then inoculated into a 96-well plate at 100 μL per well; and then cultured in an incubator having a relative humidity of 90% and 5% of CO2 at 37° C. The culture medium was discarded after the HepG2 cells were cultured for 24 hours. The culture medium containing baicalin and baicalin magnesium (equivalent to the concentration of baicalin (5 μg/mL, 10 μg/mL and 20 μg/mL)) were added in wells respectively with each concentration in four parallel wells. And at the same time, wells having culture medium without cells were used as a blank control group, and wells having cells without drug were used as a negative control group. The groups were continuously cultured for 48 hours to collect the cells. The cells were washed with PBS solution 2 times, and detected with a flow cytometer by FACS for parameter acquisition and data analysis.

In data set [2] the test system is yeast-induced febrile rats. Description: Antipyretic effect in yeast-induced febrile rats. Type of data set: in vivo, SD male rats. As to conditions: for ΔT comparing the baicalin magnesium with the baicalin: difference between groups; for Body temperature change ΔT: intragastric 80 mg/kg baicalin or equivalent. The method, then:
SD male rats were randomly divided into 4 groups, a control group, a model group, a baicalin group and a baicalin magnesium group. Rats were raised in a normal day/night cycle and at room temperature (22±2° C.) and a relative humidity of (50±2)%. Three days before the test, rats were placed in the experimental environment to adapt to the experimental conditions. Rats having a basal body temperature of 37.5-39.0° C. were selected for test The rats were fasted for 12 hours before the test, and the body temperature of rats was measured once every 1 hour when tested. Average of three body temperature values (the temperature values would be removed if a difference between the highest value and the lowest value was greater than 0.5° C.) of rats was used as the basal body temperature.
The rats were intragastrically administrated with baicalin or baicalin magnesium, and then immediately subcutaneously injected with 20% of dried yeast saline suspension (not for the control group). The administration mode was as follows: rats in the control group were intragastrically administrated with 2 ml/kg of normal saline and subcutaneously injected with 10 ml/kg of normal saline; rats in the model group were ntragastrically administrated 2 ml/kg of normal saline and subcutaneously injected with 2 g/kg of yeast; rats in the baicalin group were intragastrically administrated with 80 mg/kg of baicalin and subcutaneously injected with 2 g/kg of yeast; and rats in the baicalin magnesium group were intragastrically administrated with baicalin magnesium (equivalent to 80 mg/kg of baicalin) and subcutaneously injected with 2 g/kg of yeast. The body temperature of the rats was measured once every 2 hours for 14 hours to observe the temperature change of rats (ΔT, ° C.) at different time after injection of the yeast.

Data set [3] deals with streptozotocin-induced diabetes rats (high-fat diet). Put plainly: Antidiabetic effect: blood glucose in streptozotocin-induced diabetes. Type of data set: in vivo, SD male rats. To be noted: 80 mg/kg baicalin or equivalent intragastric daily. The procedure: Healthy SD male rats aged 6 to 8 weeks were randomly divided into 4 groups, a high-fat diet control group, a diabetes control group, a baicalin treatment group and a baicalin magnesium treatment group. The rats were raised for 1 week in advance. In the second week, all rats were fed with high-fat diet. After six weeks, the rats were fasted but with water for 12 hours. For the diabetes control group, the baicalin treatment group and the baicalin magnesium treatment group, rats were administrated by tail vein injection with 45 mg/kg of streptozotocin prepared from citrate buffer solution (pH=4.5). After 3 to 7 days, the fasting blood glucose was measured. The blood glucose level greater than 13 mmol/L was a criterion for the successful diabetes rate model. The rats in the high-fat diet control group were administrated by tail vein injection with the citrate buffer solution. After the model was built, the rats were intragastrically administrated in the morning every day. The rats in the baicalin group were administrated with baicalin at a dose of 80 mg/kg; the rates in the […] were administrated with baicalin magnesium at a dose equivalent to 80 mg/kg of baicalin; and the rats in the diabetes model group and the high-fat diet control group were intragastrically administrated the same volume of solvent once every day and for successive 6 weeks. After the molding and the administration, the blood glucose was measured in the third week and the sixth week. Single-factor variance analysis was performed on data by SPSS19.0 statistical software, and P<0.05 was of statistical significance.

Data set [4] has as its system acetic acid-induced pain in mice. Description: Analgesia: acetic acid-induced writhing. Type of data set: in vivo. As to conditions: 0.067 g/kg (baicalin equivalent) intragastric once per day 7 days; for Analgesia %: vs blank control; for Number of writhing: writhing within 15 minutes after 0.6% acetic acid i.p. The method, then: 40 mice, 20-22 g in weight, were randomly divided into 4 groups each having 10 mice, a baicalin (0.067 g/kg) group, a baicalin magnesium (equivalent to 0.067 g/kg of baicalin) group, a blank control group (administrated with normal saline), and an aspirin positive control group (0.15 g/kg). The mice were intragastrically administrated once per day for successive 7 days. After 30 minutes of final administration, the mice were intraperitoneally injected with 0.6% acetic acid saline solution at a dose of 0.2 mL/10 g; the number of writhing responses in the mice within 15 minutes was counted. Analgesia % was calculated as follows: Analgesia %=[(average number of writhing responses of the blank control group−average number of writhing responses of the drug administration group)/average number of writhing responses of the blank control group]×100%. Single-factor variance analysis was performed on data by the SPSS19.0 statistical software, and P<0.05 was of statistical significance.

Data set [5] is described as follows: Water solubility at 37° C. (equilibrium solubility method). It counts as physicochemical. To be noted: for solubility: 37 °C, thermodynamic from solid. The procedure: The solubility of the baicalin and the solubility of the baicalin magnesium in water at 37° C. were measured by a conventional solubility measurement method.
Data set [6] relates to xylene-induced ear swelling in mice. Description: Anti-inflammatory activity: xylene-induced ear swelling. It counts as in vivo. To be noted: n = 8. The method, then:
144 healthy mice were randomly divided into 3 groups, a baicalin group, a baicalin magnesium group and a control group. Each group was divided into six subgroups each having 8 mice according to time points (1 h, 3 h, 5 h, 7 h, 11 h and 15 h). Mice in the baicalin group were orally administrated (ig administration) at a dose of 100 mg·kg-1; mice in the baicalin magnesium group were orally administrated (ig administration) at a dose equivalent to 100 mg·kg-1 of baicalin; and mice in the control group were administrated with the same volume of normal saline. At 40 minutes before each time point, 100 μl of xylene was dropped in left ears of the mice in each group; when at a time point, the animals were sacrificed. Auricles of both ears of the mice were obtained with a puncher, and the difference in weight (swelling degree) between the left ear and the right ear was used as an indication of the anti-inflammatory effect of the drug.

[7] abbreviates: HepG2, 5 μg/mL (baicalin equivalent).
Where [8] appears, read: HepG2, 10 μg/mL (baicalin equivalent).
Where [9] appears, read: HepG2, 20 μg/mL (baicalin equivalent).
The mark [10] stands for this setting: 0 (after the molding, start of administration).
Setting [11] is: 1 h after oral 100 mg/kg baicalin or equivalent.
Setting [12] is: 3 h after oral 100 mg/kg baicalin or equivalent.
Where [13] appears, read: 5 h after oral 100 mg/kg baicalin or equivalent.
Setting [14] is: 7 h after oral 100 mg/kg baicalin or equivalent.
Where [15] appears, read: 11 h after oral 100 mg/kg baicalin or equivalent.
[16] abbreviates: 15 h after oral 100 mg/kg baicalin or equivalent.

Values after ≈ are worked out from the molar mass of the structure shown. Marks after values point to notes of the source that are not given here.

On to `O=C(O)C1O[C@@H](Oc2cc3oc(-c4ccccc4)cc(=O)c3c(O)c2O)C(O)[C@@H](O)[C@@H]1O` (stereo partly shown) [Baicalin Magnesium, baicalin magnesium], for which the figures for the Apoptosis % in data set [1] (setting [7]), in data set [1] (setting [8]) and in data set [1] (setting [9]) were 11.67 ± 0.65 %, 23.67 ± 5.21 % and 33.12 ± 1.58*^Δ %, respectively. In addition, the “ΔT comparing the baicalin magnesium with the baicalin” value in data set [2] (6 h) is 0.2 °C; in data set [2] (8 h), 0.5 °C. The “Body temperature change ΔT” value in data set [2] (6 h after yeast 2 g/kg s.c.) is 0.2 °C; in data set [2] (8 h after yeast 2 g/kg s.c.) it was 0.3 °C. Also, the results for the “Blood Glucose” value in data set [3] (setting [10]), in data set [3] (3 weeks) and in data set [3] (6 weeks) were 22.32 ± 2.23 mmol/L, 19.46 ± 3.59*^Δ# mmol/L and 17.58 ± 2.6*^Δ# mmol/L, respectively. For the same compound, in data set [4], the Analgesia % is given as 60.6*^Δ %. Besides, the Number of writhing in data set [4] was 10.43 ± 3.56*^Δ. The “Water solubility relative to the solubility of the baicalin” value in data set [5] (37° C.) was 2225 times. In data set [5], the solubility is 129 mg/mL (≈ 289 mM). The “Ear swelling degree (difference in weight left vs right ear)” value in data set [6] (setting [11]) was 5.87 ± 2.05*^Δ mg; in data set [6] (setting [12]), 4.57 ± 3.56 mg; in data set [6] (setting [13]) it was 4.63 ± 2.78 mg; in data set [6] (setting [14]), 5.87 ± 3.43 mg; in data set [6] (setting [15]), 6.77 ± 3.75*^Δ mg; in data set [6] (setting [16]), 7.97 ± 2.85^Δ mg.
Regarding `O=C(O)[C@H]1O[C@@H](Oc2cc3oc(-c4ccccc4)cc(=O)c3c(O)c2O)[C@H](O)[C@@H](O)[C@@H]1O` [Baicalin], the values for the Apoptosis % in data set [1] (setting [7]), in data set [1] (setting [8]) and in data set [1] (setting [9]) were 9.57 ± 0.56 %, 21.45 ± 1.67 % and 30.67 ± 3.45 %, respectively. Also, the “Body temperature change ΔT” value worked out at 0.4 °C in data set [2] (6 h after yeast 2 g/kg s.c.) and 0.8 °C in data set [2] (8 h after yeast 2 g/kg s.c.). Further, the “Blood Glucose” value in data set [3] (setting [10]) is recorded as 23.54 ± 2.5 mmol/L; in data set [3] (3 weeks), 21.45 ± 2.6 mmol/L; in data set [3] (6 weeks), 20.14 ± 2.6 mmol/L. Moreover, the Analgesia % in data set [4] is listed as 33.7* %. For the same compound, the Number of writhing in data set [4] was 17.54 ± 4.44. In data set [5], this compound showed a solubility of 0.058 mg/mL (≈ 0.13 mM). Besides, the “Ear swelling degree (difference in weight left vs right ear)” value is reported as 7.57 ± 3.05 mg in data set [6] (setting [11]); 4.66 ± 2.76 mg in data set [6] (setting [12]); 4.88 ± 1.99 mg in data set [6] (setting [13]); 6.77 ± 2.54 mg in data set [6] (setting [14]); 7.89 ± 2.98 mg in data set [6] (setting [15]); 9.12 ± 1.98 mg in data set [6] (setting [16]).
